Laboratory results as given in PubChem BioAssay (NCI).
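Step 1: Grow cells in 96-well plates. Step 2: Expose to compound for 48 hours at 5 concentrations. Step 3: Interpolate endpoints linearly; if unreached, use highest concentration. TGI is the concentration that stops growth completely.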

Tests used:
Test in all cases: inhibition of tumour cell growth, NCI panel, 48 h
MALME-3M melanoma = system: MALME-3M melanoma
OVCAR-3 ovarian = system: OVCAR-3 ovarian
SF-539 CNS = system: SF-539 CNS
SNB-75 CNS = system: SNB-75 CNS
CAKI-1 renal = system: CAKI-1 renal
A498 renal = system: A498 renal
NCI-H23 lung = system: NCI-H23 lung
DU-145 prostate = system: DU-145 prostate
SN12C renal = system: SN12C renal
UO-31 renal = system: UO-31 renal

SMILES	TGI (MALME-3M melanoma) [µM]	TGI (OVCAR-3 ovarian) [µM]	TGI (SF-539 CNS) [µM]	TGI (SNB-75 CNS) [µM]	TGI (CAKI-1 renal) [µM]	TGI (A498 renal) [µM]	TGI (NCI-H23 lung) [µM]	TGI (DU-145 prostate) [µM]	TGI (SN12C renal) [µM]	TGI (UO-31 renal) [µM]
CC(=O)OC1C(C)OC(OC2C[C@](O)(C(C)=O)Cc3c(O)c4c(c(O)c32)C(=O)c2ccccc2C4=O)C(F)C1OC(C)=O (some centres not stated)	4.08	9.9	1.03	4.33	1.39	2.87	1.81	4.59	7.76	0.567
O=C1CSC(c2cccc(Oc3ccccc3)c2)N1c1cc(Cl)ccc1Cl (configuration not stated)	57.6	51.2	35.6	62.6	48.8	70.7	98.2	> 100	39.1	43.3
C[C@@H](c1ccccc1)N(CC#N)[C@H]1CCC[C@]1(O)/C=C/c1ccc2c(c1)OCO2	> 25			> 25	> 25	6.98	> 25	> 25	> 25	> 25
CCCCSC1=N/C(=C\c2ccccc2O)C(Cl)=N1	> 100	> 100	> 100	> 100	> 100	> 100	> 100	> 100	> 100	> 100
CCOP(=O)(OCC)/C(C#N)=C(\C)c1ccco1	> 10	> 10	> 10	> 10	> 10	> 10	> 10	> 10	> 10	> 10
Nc1nc(Nc2cc(F)c(Cl)c(F)c2)cc(=O)[nH]1	> 100	> 100	> 100	97.9	> 100	> 100	> 100	> 100	> 100	
CC(C)[C@H](NC(=O)OCc1ccccc1)C(=O)N[C@H](/C=C/C(=O)OC(C)(C)C)CO	> 100	> 100	> 100		> 100	> 100	> 100	> 100	> 100	
O=C1Cc2c(-c3ccccc3)cc(-c3ccc(Cl)cc3)nc2-c2ccccc2N1	> 34.4	22.8	19.8	8.77	16.2	3.67	17.8	> 90.2	16.9	7.31
O=C(NCc1ccc(Cl)c(Cl)c1)c1nc2ccccc2nc1NCc1ccc(Cl)c(Cl)c1		> 100	> 100	> 100	> 100	> 100	> 100	> 100	> 100	> 100
O=CC12CCCN1CCC2	> 100	> 100			> 100		> 100	> 100	> 100	> 100
CC(=O)OC/C=C/Cn1nc(Br)c(=O)[nH]c1=O	> 100	> 100	> 100	> 100	> 100	> 100	> 100	> 100	> 100	> 100
CSC(=NCCCN=C(NS(=O)(=O)c1ccc(Cl)cc1)SC)NS(=O)(=O)c1ccc(Cl)cc1	72.7	80	> 100	> 100	> 100	73.1		> 100	> 100	40.5
N#Cc1c2c(c(Nc3ccc(Cl)cc3)n3c1nc1ccccc13)CCCC2	> 100	> 100	> 100	> 100	> 100	> 100	> 100	> 100	> 100	> 100
CC(C)(C)OC(=O)NCCCCC1NC(=O)[C@@H]2Cc3c([nH]c4ccccc34)C(c3ccccc3)N2C1=O (some centres not stated)	> 100	49.2			> 100	> 100	> 100	> 100	79.6	> 100
NS(=O)(=O)C1CCCCC1C(=O)NNC(=O)C(=O)Nc1nc(=S)[nH][nH]1 (configuration not stated)			> 100	> 100	> 100	> 100	> 100		> 100	> 100
COc1cc(COC(=O)NC(Cc2cccs2)C(=O)O)c([N+](=O)[O-])cc1OC (configuration not stated)	> 100	> 100	> 100	> 100		> 100	> 100	> 100	> 100	> 100
NS(=O)(=O)c1cc2c(cc1Cl)NC(C(=O)NNC(=O)c1ccncc1)=NS2(=O)=O	> 100	> 100	> 100	> 100	> 100		> 100		> 100	> 100
O=C(c1ccccc1)n1c2ccc(Br)cc2c2nc3ccccc3nc21	> 100	> 100	> 100	> 100	> 100		> 100	> 100	> 100	> 100
CN(C)c1ccc(/C=C2\CCCCCC2=O)cc1	> 100	> 100	> 100	> 100	> 100	> 100		> 100	> 100	> 100
CCOC(=O)N/N=C(/N)Cc1ccc(Cl)cc1		> 100	> 100	> 100			> 100	> 100	> 100	> 100
Cc1ccc(C)c(C(=O)CC2OC(O)C(Cl)C2Cl)c1 (configuration not stated)	> 100	> 100	53.2	> 100	84.4	> 100	> 100		> 100	> 100
O=[N+]([O-])c1cccc2c1[nH]c1c(-c3ccccc3)nccc12	6.43	4.45	> 69	7.59		12.9	8.48		> 73.1	4.22
Oc1[nH]c2ccccc2c1N=Nc1nc(-c2ccccc2)cs1		> 100	28.9	41.3	39.8		> 100	> 100	> 100	> 100
